# Measurements from ChEMBL document CHEMBL1201862, “PubChem BioAssay data set” (2004).
# The source made the active and inactive calls.
# What was measured:
# [1] = molecular target: T1, Rac GTPase-activating protein 1 (Homo sapiens, UniProt Q9H0H5); assay: MgcRacGAP GTPase-activating activity inhibitors, confirmation, biochemical, ADP Hunter fluorescence, primary and confirmatory (AID 624330); type: functional
# T1 sequence (Q9H0H5 whole entry): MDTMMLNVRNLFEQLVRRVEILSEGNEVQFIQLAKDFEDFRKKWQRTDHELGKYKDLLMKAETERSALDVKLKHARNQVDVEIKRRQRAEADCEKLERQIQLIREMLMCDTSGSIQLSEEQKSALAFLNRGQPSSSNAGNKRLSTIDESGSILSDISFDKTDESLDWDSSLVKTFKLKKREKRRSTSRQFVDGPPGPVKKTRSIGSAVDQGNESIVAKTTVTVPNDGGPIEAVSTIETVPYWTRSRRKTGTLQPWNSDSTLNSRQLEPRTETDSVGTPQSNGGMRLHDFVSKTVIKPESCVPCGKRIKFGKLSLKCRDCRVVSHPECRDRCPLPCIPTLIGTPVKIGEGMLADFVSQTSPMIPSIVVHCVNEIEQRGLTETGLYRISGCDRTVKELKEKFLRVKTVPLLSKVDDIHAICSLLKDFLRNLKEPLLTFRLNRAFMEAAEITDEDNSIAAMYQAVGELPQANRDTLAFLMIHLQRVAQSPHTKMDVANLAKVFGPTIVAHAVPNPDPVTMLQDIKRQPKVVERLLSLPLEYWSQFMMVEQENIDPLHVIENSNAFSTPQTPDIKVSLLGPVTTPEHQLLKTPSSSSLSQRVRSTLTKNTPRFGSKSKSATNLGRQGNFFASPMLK
# [2] = HeLa cell cytotoxicity, dose response, cytotoxicity control for MgcRacGAP inhibitor project (AID 624300); type: functional
# [3] = LGR2 antagonists, dose response, cell-based, HEK293, CRE-luciferase reporter, cherry pick, set 2 (AID 743343); type: functional;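 note: transfected cells were stimulated with diluted bursicon conditioned medium after compound addition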
# [4] = molecular target: T2, Adenosylmethionine-8-amino-7-oxononanoate aminotransferase (Mycobacterium tuberculosis, UniProt P9WQ81); assay: Mycobacterium tuberculosis BioA enzyme inhibitor Measured in Biochemical System Using Plate Reader - 2163-02_Inhibitor_Dose_CherryPick_Activity.; type: functional, Mycobacterium tuberculosis UT205
# T2 sequence (P9WQ81 whole entry): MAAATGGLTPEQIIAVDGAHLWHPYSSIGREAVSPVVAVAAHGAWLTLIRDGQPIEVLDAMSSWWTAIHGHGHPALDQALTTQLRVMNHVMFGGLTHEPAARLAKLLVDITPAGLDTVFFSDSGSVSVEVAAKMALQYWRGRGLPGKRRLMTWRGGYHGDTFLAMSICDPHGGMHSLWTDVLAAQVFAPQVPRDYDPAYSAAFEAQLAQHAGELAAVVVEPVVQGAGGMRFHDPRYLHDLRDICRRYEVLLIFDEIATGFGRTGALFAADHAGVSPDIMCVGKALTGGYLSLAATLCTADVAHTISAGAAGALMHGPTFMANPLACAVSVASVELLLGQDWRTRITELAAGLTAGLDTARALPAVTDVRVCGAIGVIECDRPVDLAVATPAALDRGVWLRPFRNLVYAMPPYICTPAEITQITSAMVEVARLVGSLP
# [5] = molecular target: T3, Nuclear receptor subfamily 0 group B member 1 (Homo sapiens, UniProt P51843); type: functional, cell-based;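 note: HEK293T cells transfected with SF-1 and DAX-1 plus StAR promoter luciferase reporter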
# T3 sequence (P51843 whole entry): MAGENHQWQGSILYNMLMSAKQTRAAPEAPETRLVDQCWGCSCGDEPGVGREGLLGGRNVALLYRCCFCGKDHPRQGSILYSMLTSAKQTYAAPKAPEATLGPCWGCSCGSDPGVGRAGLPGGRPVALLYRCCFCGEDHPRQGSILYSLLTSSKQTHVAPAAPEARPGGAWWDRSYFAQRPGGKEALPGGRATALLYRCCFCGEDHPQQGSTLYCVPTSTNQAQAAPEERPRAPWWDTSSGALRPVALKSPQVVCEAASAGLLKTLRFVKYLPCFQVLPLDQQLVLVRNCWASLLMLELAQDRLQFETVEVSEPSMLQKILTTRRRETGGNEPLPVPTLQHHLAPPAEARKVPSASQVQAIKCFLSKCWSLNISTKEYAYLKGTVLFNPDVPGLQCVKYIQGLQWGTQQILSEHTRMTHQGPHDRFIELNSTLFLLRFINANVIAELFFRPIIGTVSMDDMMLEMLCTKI
# [6] = cells; type: functional, cell-based
# [7] = molecular target: T4, Short transient receptor potential channel 4 (Mus musculus, UniProt Q9QUQ5); assay: mouse TRPC4 channel inhibitors, dose response, cell-based, HEK293 TRPC4/mu-opioid, Fluo-4 calcium (AID 434942); type: functional;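 note: potency of inhibitors blocking the TRPC4 calcium response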
# T4 sequence (Q9QUQ5 whole entry): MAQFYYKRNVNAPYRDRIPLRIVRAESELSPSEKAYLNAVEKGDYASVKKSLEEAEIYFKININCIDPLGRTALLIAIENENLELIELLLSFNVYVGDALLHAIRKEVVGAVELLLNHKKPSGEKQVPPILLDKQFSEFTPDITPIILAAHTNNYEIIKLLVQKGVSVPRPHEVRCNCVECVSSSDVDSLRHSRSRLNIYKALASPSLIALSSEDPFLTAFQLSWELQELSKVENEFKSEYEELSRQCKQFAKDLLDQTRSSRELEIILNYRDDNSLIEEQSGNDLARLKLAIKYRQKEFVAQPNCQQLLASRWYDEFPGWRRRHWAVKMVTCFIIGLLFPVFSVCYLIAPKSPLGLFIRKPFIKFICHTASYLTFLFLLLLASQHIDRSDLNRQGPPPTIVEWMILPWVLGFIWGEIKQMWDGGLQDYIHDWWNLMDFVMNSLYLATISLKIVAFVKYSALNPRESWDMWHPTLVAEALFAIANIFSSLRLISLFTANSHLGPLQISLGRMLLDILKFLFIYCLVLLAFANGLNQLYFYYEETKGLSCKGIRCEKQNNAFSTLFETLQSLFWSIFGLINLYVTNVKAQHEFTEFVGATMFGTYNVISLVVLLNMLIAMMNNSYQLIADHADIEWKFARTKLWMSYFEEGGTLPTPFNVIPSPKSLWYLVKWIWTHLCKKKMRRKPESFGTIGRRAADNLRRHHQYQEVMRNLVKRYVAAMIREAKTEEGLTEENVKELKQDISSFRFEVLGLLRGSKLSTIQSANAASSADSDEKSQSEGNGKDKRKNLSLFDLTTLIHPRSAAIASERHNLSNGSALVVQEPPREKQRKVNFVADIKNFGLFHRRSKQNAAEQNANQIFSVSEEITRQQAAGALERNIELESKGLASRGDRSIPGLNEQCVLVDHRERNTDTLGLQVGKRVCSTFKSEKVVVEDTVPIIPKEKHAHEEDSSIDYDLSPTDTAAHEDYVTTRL
# [8] = molecular target: Protein Wnt-3a (Mus musculus, UniProt P27467); assay: Wnt3a-driven reporter signaling inhibition, dose response, selectivity assay for Gli-SUFU antagonist project, Wnt-LIGHT cells, luminescence (AID 651570); type: functional; settings: read-out: IC50_Mean;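 note: Wnt-LIGHT reporter cells stimulated with conditioned medium from Wnt3a-producing cells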
# [9] = molecular target: Prothrombin (Homo sapiens, UniProt P00734); assay: Thrombin 1536 HTS Dose Response Confirmation. [Related pubchem assays: 1046 (Thrombin 1536 HTS; hits were confirmed in this assay)]; type: functional
# [10] = molecular target: T5, Trace amine-associated receptor 1 (Homo sapiens, UniProt Q96RJ0); assay: Counterscreen for agonists of the human trace amine associated receptor 1 (hTAAR1): Fluorescence-based cell-based high throughput dose response assay to identify hTAAR1 agonist that also desensitize TAAR1 receptor response.; type: functional
# T5 sequence (Q96RJ0 whole entry): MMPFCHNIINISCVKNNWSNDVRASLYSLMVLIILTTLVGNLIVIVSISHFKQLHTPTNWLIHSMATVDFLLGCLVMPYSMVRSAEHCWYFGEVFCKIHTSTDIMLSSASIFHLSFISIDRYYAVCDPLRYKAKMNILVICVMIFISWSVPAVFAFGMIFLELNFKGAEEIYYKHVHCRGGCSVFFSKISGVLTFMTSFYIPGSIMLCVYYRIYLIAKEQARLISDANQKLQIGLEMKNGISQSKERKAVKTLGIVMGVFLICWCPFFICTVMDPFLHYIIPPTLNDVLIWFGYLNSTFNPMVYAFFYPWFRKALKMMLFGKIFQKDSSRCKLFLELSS
# [11] = cells; type: functional, cell-based; remark: listed apart in the source
# [12] = cells; type: functional, cell-based; remark: listed apart in the source
# [13] = molecular target: T5, Trace amine-associated receptor 1; assay: Fluorescence-based cell-based high throughput dose response assay to identify agonists of the human trace amine associated receptor 1 (TAAR1).; type: functional
# [14] = molecular target: Steroidogenic factor 1 (Homo sapiens, UniProt Q13285); assay: Counterscreen for inverse agonists of the liver receptor homolog-1 (LRH-1; NR5A2): Luminescence-based cell-based high throughput dose response assay to identify inverse agonists of the Steroidogenic Factor 1 Nuclear Receptor (SF1; NR5A1).; type: functional
# [15] = molecular target: T6, Fatty acid synthase (Homo sapiens, UniProt P49327); assay: FAS thioesterase domain inhibitors, dose response, biochemical, kinetic fluorescence intensity (AID 624326); type: functional;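 note: rate of fluorescence rise from hydrolysis of a fluorogenic O-methyl fluorescein ester substrate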
# [16] = molecular target: T6, Fatty acid synthase; assay: FAS thioesterase domain inhibitors, dose response, biochemical, endpoint fluorescence intensity, uHTS hits (AID 624327); type: functional;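 note: fluorescence from hydrolysis of an O-methyl fluorescein acyl ester substrate by the enzyme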
# [17] = molecular target: Nuclear receptor subfamily 5 group A member 2 (Homo sapiens, UniProt O00482); type: functional, cell-based;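 note: HEK293T cells transfected with LRH-1 and a StAR promoter luciferase reporter; potency for inhibitors that lower LRH-1 driven reporter light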
# [18] = StAR promoter reporter inhibition counter-screen, dose response, counter-screen for LRH-1 inverse agonist project, cell-based, luminescence, luciferase reporter (AID 651969); type: functional
# T6 sequence (P49327 whole entry, the tested form may be a part): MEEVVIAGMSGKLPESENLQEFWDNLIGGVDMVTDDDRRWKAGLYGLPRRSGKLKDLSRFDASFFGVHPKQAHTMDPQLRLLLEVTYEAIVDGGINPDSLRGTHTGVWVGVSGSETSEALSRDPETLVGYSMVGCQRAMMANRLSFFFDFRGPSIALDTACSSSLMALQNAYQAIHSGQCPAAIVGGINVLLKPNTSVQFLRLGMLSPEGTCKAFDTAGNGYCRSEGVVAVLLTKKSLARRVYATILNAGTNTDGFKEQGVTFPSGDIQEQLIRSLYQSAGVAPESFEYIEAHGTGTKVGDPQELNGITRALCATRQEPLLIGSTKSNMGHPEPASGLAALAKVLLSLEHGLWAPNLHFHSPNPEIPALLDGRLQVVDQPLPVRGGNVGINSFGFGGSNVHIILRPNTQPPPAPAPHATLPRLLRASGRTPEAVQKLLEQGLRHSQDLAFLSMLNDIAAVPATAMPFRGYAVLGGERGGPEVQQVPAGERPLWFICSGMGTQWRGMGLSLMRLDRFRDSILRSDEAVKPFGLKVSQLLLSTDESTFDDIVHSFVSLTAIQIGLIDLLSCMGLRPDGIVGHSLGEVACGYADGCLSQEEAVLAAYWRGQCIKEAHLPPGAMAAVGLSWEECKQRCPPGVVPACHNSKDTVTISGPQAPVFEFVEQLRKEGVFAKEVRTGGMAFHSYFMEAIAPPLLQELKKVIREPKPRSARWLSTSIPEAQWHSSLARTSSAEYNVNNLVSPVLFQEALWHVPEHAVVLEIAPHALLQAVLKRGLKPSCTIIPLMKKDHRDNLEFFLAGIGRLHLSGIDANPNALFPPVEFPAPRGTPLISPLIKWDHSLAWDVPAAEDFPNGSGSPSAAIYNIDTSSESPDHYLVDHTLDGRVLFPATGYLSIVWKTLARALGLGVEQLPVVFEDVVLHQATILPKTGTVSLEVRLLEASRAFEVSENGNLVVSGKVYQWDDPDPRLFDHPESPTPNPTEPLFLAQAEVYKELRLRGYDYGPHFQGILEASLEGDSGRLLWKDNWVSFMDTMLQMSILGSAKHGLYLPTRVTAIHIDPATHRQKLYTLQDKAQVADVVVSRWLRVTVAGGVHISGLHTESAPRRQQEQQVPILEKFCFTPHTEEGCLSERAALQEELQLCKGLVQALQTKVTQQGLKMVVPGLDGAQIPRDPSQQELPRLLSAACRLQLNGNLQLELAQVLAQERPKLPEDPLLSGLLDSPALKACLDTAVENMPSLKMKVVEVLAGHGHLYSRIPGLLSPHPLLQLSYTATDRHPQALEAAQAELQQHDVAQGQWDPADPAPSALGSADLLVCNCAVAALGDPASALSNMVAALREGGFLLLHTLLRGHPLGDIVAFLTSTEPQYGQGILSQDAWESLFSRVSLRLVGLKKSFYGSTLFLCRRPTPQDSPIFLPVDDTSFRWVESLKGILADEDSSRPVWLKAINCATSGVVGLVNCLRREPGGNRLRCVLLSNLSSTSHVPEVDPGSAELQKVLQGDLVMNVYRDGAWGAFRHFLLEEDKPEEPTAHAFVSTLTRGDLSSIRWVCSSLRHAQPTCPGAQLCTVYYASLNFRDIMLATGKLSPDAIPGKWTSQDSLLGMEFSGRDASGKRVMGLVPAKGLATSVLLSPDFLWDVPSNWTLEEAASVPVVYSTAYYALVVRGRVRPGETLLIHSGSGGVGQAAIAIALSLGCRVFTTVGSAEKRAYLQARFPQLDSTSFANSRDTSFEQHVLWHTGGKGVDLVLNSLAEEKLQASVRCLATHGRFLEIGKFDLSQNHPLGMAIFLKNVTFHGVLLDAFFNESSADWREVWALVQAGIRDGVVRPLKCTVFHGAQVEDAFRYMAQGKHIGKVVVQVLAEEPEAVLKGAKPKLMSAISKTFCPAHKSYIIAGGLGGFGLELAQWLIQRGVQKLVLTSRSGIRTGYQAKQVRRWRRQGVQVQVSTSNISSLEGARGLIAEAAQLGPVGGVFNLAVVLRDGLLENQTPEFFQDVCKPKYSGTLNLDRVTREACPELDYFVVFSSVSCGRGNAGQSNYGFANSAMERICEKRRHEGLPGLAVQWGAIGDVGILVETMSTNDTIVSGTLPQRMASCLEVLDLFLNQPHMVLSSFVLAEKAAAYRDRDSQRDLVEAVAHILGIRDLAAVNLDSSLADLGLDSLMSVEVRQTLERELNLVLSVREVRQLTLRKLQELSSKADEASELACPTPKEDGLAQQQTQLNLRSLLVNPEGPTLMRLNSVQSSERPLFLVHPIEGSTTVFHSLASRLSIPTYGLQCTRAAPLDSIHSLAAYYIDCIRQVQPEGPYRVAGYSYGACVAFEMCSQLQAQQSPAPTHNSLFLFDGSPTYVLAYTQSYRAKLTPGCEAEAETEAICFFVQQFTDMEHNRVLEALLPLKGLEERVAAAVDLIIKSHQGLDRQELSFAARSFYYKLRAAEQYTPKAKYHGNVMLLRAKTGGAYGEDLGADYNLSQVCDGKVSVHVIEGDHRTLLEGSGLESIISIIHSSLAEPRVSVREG
# Sequence of Protein Wnt-3a (P27467 whole entry): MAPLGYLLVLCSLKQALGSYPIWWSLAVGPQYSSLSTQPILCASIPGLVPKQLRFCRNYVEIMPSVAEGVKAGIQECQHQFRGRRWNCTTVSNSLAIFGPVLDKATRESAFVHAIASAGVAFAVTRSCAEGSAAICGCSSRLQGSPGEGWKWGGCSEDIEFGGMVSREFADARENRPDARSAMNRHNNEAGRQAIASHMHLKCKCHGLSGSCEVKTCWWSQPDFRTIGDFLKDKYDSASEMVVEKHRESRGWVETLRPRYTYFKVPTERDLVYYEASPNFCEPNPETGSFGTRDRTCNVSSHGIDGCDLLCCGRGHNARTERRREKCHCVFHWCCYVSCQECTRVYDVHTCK
# Sequence of Nuclear receptor subfamily 5 group A member 2 (O00482 whole entry): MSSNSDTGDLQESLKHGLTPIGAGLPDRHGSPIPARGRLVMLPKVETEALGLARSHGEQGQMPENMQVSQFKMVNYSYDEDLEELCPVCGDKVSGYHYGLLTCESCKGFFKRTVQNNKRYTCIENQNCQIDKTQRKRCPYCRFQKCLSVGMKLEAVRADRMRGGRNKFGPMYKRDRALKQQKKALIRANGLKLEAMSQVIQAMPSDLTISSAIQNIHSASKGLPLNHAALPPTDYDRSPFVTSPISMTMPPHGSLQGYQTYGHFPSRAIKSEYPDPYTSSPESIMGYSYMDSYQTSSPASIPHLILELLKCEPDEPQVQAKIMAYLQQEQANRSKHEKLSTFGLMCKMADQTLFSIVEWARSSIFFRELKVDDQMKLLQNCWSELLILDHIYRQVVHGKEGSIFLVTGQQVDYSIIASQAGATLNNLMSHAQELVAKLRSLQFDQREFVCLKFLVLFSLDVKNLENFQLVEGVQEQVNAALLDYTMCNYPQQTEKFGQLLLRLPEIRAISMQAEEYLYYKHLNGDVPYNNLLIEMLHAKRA
# Sequence of Steroidogenic factor 1 (Q13285 whole entry, the tested form may be a part): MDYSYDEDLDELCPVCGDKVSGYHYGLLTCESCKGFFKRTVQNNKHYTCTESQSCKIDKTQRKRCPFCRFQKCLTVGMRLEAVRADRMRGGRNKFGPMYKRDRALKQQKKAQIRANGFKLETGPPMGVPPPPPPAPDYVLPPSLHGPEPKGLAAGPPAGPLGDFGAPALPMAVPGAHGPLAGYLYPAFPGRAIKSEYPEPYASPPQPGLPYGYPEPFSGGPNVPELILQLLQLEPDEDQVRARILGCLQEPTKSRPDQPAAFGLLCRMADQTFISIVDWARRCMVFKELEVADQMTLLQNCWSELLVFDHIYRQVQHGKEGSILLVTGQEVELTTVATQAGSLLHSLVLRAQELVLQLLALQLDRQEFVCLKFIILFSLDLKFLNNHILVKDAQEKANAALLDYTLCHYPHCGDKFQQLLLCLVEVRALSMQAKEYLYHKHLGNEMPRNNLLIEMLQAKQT
structure (smiles),measurement,setting,value
COc1cc(/C=C2\C(=O)N(C)C(=S)N2C)ccc1O,IC50,[1],31.9 µM (active)
same,CC50,[2],100 µM (active)
CCc1ccc2ncc(S(=O)(=O)c3ccc(C)c(C)c3)c(N3CCCC3)c2c1,AC50,[3],48.2 µM (active)
O=C(C1CCCN(S(=O)(=O)c2cccnc2)C1)N1CCn2c1nc1ccccc12 (stereo not given),AC50,[4],14 µM (active)
CN1CCN(C(=O)c2cc(COc3ccccc3)on2)[C@@H](c2ccccc2)C1,IC50,[5],> 67.6 µM (inactive)
same,IC50,[6],> 67.6 µM (inactive)
CNc1nc(NCc2ccccc2)c2ccccc2n1,EC50,[7],1.19 µM (active)
same,IC50,[8],43.1 µM (inactive)
COc1ccc(C2c3c(-c4cc(Cl)c(C)cc4O)n[nH]c3C(=O)N2Cc2cccnc2)cc1OC (stereo not given),IC50,[9],> 50 µM (not active)
same,AC50,[4],0.102 µM (active)
CNCC(C)c1ccccc1 (stereo not given),IC50,[10],3.54 µM (active)
same,EC50,[11],> 29.9 µM (inactive)
same,IC50,[12],> 29.9 µM (inactive)
same,EC50,[13],0.598 µM (active)
O=C(Nc1ccc(Cc2ccncc2)cc1)c1cccc([N+](=O)[O-])c1,IC50,[14],1.33 µM (active)
same,IC50,[15],10.5 µM (active)
same,IC50,[16],7.76 µM (active)
same,IC50,[17],35.9 µM (inactive)
same,IC50,[18],35.9 µM (inactive)
CCCN1CCN(C(=O)C2CCN(c3nnc(C)c4c(C)n(-c5ccc(C)cc5)nc34)CC2)CC1,AC50,[4],12.3 µM (active)
